According to article PMC4971072, “Chemically Homogenous Compounds with Antagonistic Properties at All α1-Adrenoceptor Subtypes but not β1-Adrenoceptor Attenuate Adrenaline-Induced Arrhythmia in Rats” (Frontiers in Pharmacology, 2016):
Where a name gives a salt, the structure may show the parent alone.

Key:
β1-adrenergic receptor = target: T1, β1-adrenergic receptor (Rattus norvegicus, UniProt P18090); assay: β1-adrenoceptor radioligand binding assay ([3H]-CGP-12177, rat cerebral cortex); details: read-out: Adrenergic receptors Ki β1
T1 construct: The brains were homogenized in 20 volumes of an ice-cold 50 mM Tris-HCl buffer; from tissue; host or cells: rat cerebral cortex membranes
T1 sequence (P18090 whole entry): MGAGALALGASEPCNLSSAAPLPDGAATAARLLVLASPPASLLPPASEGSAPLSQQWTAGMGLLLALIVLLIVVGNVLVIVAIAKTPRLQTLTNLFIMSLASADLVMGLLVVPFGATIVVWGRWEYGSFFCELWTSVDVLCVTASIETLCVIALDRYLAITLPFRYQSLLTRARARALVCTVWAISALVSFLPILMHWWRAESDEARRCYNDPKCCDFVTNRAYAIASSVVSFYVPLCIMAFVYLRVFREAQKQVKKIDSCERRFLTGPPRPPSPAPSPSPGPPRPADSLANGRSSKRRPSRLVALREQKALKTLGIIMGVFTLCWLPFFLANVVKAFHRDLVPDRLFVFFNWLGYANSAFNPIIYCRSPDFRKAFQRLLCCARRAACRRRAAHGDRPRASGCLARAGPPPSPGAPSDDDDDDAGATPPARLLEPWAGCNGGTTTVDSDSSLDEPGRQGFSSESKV
Protocol: The α1- and β1-adrenoceptor radioligand binding assay was performed on rat cerebral cortex. […] The cell pellet was resuspended in the Tris–HCl buffer and centrifuged again. Radioligand binding assays were performed in plates (MultiScreen/Millipore). […] The incubation was terminated by rapid filtration through glass fiber filters (Whatman GF/C) using a vacuum manifold (Millipore). The filters were then washed twice with the assay buffer and placed in scintillation vials with a liquid scintillation cocktail. […] All the assays were made in duplicate and the inhibitory constants (Ki) were estimated.
LO–labeled ligand concentration, KD–dissociation constant of labeled ligand

[1] = test system: α1-adrenergic receptor subtypes; assay: Comparison of functional affinities across α1-adrenoceptor subtypes (rat tail artery, mouse spleen, rat aorta); assay type: biochemical; details: from difference in pA2 values
Protocol: The isolated artery, cut into ~4 mm long rings, was then horizontally put up between two stainless steel hooks (diameter 0.15 mm). One hook was fastened to the bottom of the chamber and the other to an isometric FDT10-A force displacement transducer (DMT Model 750TOBS, Denmark), linked with Powerlab 4/26 analyzer (ADInstruments), and processed by LabChart 7 software. […] The initial optimal tissues tension was set at 0.75 g. Chloroethylclonidine (3 μM) as the preferential α1B-adrenoreceptor alkylating agent was used during incubation and after 30 min it was completely washed off. Through 100 min of equilibration tissues were stimulated with noradrenaline (1 μM) four times with washing out until the contractile response become constant. Two cumulative concentration-response curves to noradrenaline, at an interval of 60 min, were established on each arterial ring both in the presence and absence of antagonist. The incubation with antagonists went on for 30 min. The experiments were carried out in the constant presence of yohimbine (0.1 μM) and propranolol (1 μM) to block α2- and β-adrenoceptors, respectively in order to minimize the involvement of these adrenoceptors in the response to noradrenaline.
The influence on α1B-adrenoceptors was evaluated using the isolated mouse spleen. The spleen was removed from male mice right after killing the anesthetized animal by cervical dislocation. […]

α1-adrenoceptor = details: rat cerebral cortex, [3H]-prazosin; ref Pytka et al. (2015); read-out: Adrenergic receptors Ki α1; cited from earlier work

Compound	Ki (β1-adrenergic receptor) [nM]	α1A-adrenoceptor blockade relative to α1B subtype (fold stronger) [1]	Ki (α1-adrenoceptor) [nM]
COc1ccccc1N1CCN(CCCOc2cc(C)cc(C)c2C)CC1 [HBK-19, 1N-[3-(2,3,5-trimethylphenoxy)propyl]-4N-(2-methoxyphenyl)piperazine hydrochloride]	> 10000	around seven-fold	
COc1ccccc1N1CCN(CCCOc2c(C)cc(C)cc2C)CC1 [HBK-18, 1N-[3-(2,4,6-trimethylphenoxy)propyl]-4N-(2-methoxyphenyl)piperazine hydrochloride]	> 10000		
COc1ccccc1N1CCN(CCOCCOc2c(C)cccc2C)CC1.Cl [HBK-14, 1-[(2,6-dimethylphenoxy)ethoxyethyl]-4-(2-methoxyphenyl)piperazine hydrochloride]			22.8
COc1ccccc1N1CCN(CCCOc2cc(C)ccc2Cl)CC1 [HBK-16, 1N-[3-(2-chloro-5-methylphenoxy)propyl]-4N-(2-methoxyphenyl)piperazine hydrochloride]	> 10000		
COc1ccccc1N1CCN(CCOCCOc2c(C)cccc2Cl)CC1.Cl [HBK-15, 1-[(2-chloro-6-methylphenoxy)ethoxyethyl]-4-(2-methoxyphenyl)piperazine hydrochloride]			13.1
